{
  "source": "paper PMC7322544",
  "about": "“Combining an in silico proarrhythmic risk assay with a tPKPD model to predict QTc interval prolongation in the anesthetized guinea pig assay” (Toxicology and Applied Pharmacology, 2020)",
  "system": "QTc interval",
  "test": "Anesthetized cardiovascular guinea pig (CVGP) assay",
  "type": "in vivo",
  "protocol": "Briefly, male Hartley guinea pigs (BW: 350–500 g) were anesthetized with a bolus mixture of ketamine/xylazine (85/5 mg kg^− 1, IM) then an intravenous (iv) infusion of ketamine/xylazine (40/0.5 mg kg^− 1 h^− 1, to effect). The jugular vein and left carotid arteries were cannulated for test article administration and arterial blood pressure (BP) monitoring and blood collection, respectively. The body surface electrocardiogram (ECG) was measured via subcutaneous needle electrodes to record modified lead-II ECG. After surgery, anesthetized GPs were stabilized for a minimum of 10 min before beginning baseline data collection. Solutions of 3 varying test-article concentrations suitable for administering selected doses were prepared in appropriate vehicles. Vehicle alone or test-article solutions were administered i.v. with each dose level infused over a 20-min period. Each test article and vehicle were evaluated in ≥ n = 3 male anesthetized GPs. Blood sampling for pharmacokinetic analysis was taken at 10 and 19 min of each dose level.",
  "data": [
    {"smiles": "COc1c(N2C[C@@H]3CCCN[C@@H]3C2)c(F)cc2c(=O)c(C(=O)O)cn(C3CC3)c12", "note": "[NCE 7, moxifloxacin]", "values": [
      {"measurement": "CVGP QTc EC5", "setting": "anesthetized guinea pig, free plasma concentration causing 5% increase in QTc interval, > = highest free plasma concentration tested without QTc prolongation", "value": 12, "unit": "µM"},
      {"measurement": "CVGP QTc EC5", "setting": "free plasma concentration", "value": 15, "unit": "µM"},
      {"measurement": "Guinea pig QTc EC5", "setting": "free plasma concentration giving 5% QTc increase, > = above highest free plasma concentration tested, no QTc prolongation, i.v. infusion", "value": 15, "unit": "µM"}
    ]}
  ]
}
